Among the data in US20080234318A1, “Chemical Compounds” (priority 2005, published 2008) are IC50 values, retold here.

For the experiment, the system named is HIV-1. Put plainly: HOS HIV-1 infectivity assay. Conditions: Human immunodeficiency virus 1, BAL / IIIB, HOS cells expressing hCXCR4/hCCR5/hCD4/pHIV-LTR-luciferase, virus strain (Ba-L or IIIB) not given, read-out: Activity Level. In kind it is cell-based. How it is done: Compounds were profiled against two HIV-1 viruses, the M-tropic (CCR5 utilizing) Ba-L strain and the T-tropic (CXCR4 utilizing) IIIB strain. Both viruses were propagated in human peripheral blood lymphocytes. Compounds were tested for there ability to block infection of the HOS cell line (expressing hCXCR4/hCCR5/hCD4/pHIV-LTR-luciferase) by either HIV-1 Ba-L or HIV-1 IIIB. Compound cytotoxicity was also examined in the absence of virus addition.
HOS cells (expressing hCXCR4/hCCR5/hCD4/pHIV-LTR-luciferase) were harvested and diluted in Dulbeccos modified Eagles media supplemented with 2% FCS and non-essential amino acid to a concentration of 60,000 cells/ml. The cells were plated into 96-well plates (100 ul per well) and the plates were placed in a tissue culture incubator (37° C.; 5% CO2/95% air) for a period of 24h.
Subsequently, 50 ul of the desired drug solution (4 times the final concentration) was added to each well and the plates were returned to the tissue culture incubator (37° C.; 5% CO2/95% air) for 1h. Following this incubation 50 ul of diluted virus was added to each well (approximately 2 million RLU per well of virus). The plates were returned to the tissue culture incubator (37° C.; 5% CO2/95% air) and were incubated for a further 96h.
Following this incubation the endpoint for the virally infected cultures was quantified following addition of Steady-Glo Luciferase assay system reagent (Promega, Madison, Wis.). Cell viability or non-infected cultures was measured using a CellTiter-Glo luminescent cell viability assay system (Promega, Madison, Wis.). All luminescent readouts are performed on a Topcount luminescence detector (Packard, Meridien, Conn.).
For the compound `CCOC(=O)NCc1c(CN(C)[C@H]2CCCc3cccnc32)nc2cccc(N3CCN(C)CC3)n12` [Example 32, Ethyl {[5-(4-methyl-1-piperazinyl)-2-({methyl[(8S)-5,6,7,8-tetrahydro-8-quinolinyl]amino}methyl)imidazo[1,2-a]pyridin-3-yl]methyl}carbamate], the IC50 was < 100 nM.

In the case of `CN1CCN(c2cccc3nc(CN(C)[C@H]4CCCc5cccnc54)c(CNC(=O)OCc4ccccc4)n23)CC1` [Example 33, Phenylmethyl {[5-(4-methyl-1-piperazinyl)-2-({methyl[(8S)-5,6,7,8-tetrahydro-8-quinolinyl]amino}methyl)imidazor[1,2-a]pyridin-3-yl]methyl}carbamate], the IC50 is < 100 nM.

As for `CN1CCN(c2cccc3nc(CN(C)[C@H]4CCCc5cccnc54)c(CNS(C)(=O)=O)n23)CC1` [Example 34, N-{[5-(4-Methyl-1-piperazinyl)-2-({methyl[(8S)-5,6,7,8-tetrahydro-8-quinolinyl]amino}methyl)imidazo[1,2-a]pyridine-3-yl]methyl}methanesulfonamide], the IC50 was < 100 nM.

For the compound `CCS(=O)(=O)NCc1c(CN(C)[C@H]2CCCc3cccnc32)nc2cccc(N3CCN(C)CC3)n12` [Example 35, N-{[5-(4-Methyl-1-piperazinyl)-2-({methyl[(8S)-5,6,7,8-tetrahydro-8-quinolinyl]amino}methyl)imidazo[1,2-a]pyridin-3-yl]methyl}ethanesulfonamide], the IC50 was < 100 nM.

As to `CC(C)S(=O)(=O)NCc1c(CN(C)[C@H]2CCCc3cccnc32)nc2cccc(N3CCN(C)CC3)n12` [Example 36, N-{[5-(4-Methyl-1-piperazinyl)-2-({methyl[(8S)-5,6,7,8-tetrahydro-8-quinolinyl]amino}methyl)imidazo[1,2-a]pyridin-3-yl]methyl}-2-propanesulfonamide], the IC50 was < 100 nM.

As to `CN1CCN(c2cccc3nc(CN(C)[C@H]4CCCc5cccnc54)c(CNS(=O)(=O)c4ccccc4)n23)CC1` [Example 37, N-{[5-(4-Methyl-1-piperazinyl)-2-({methyl[(8S)-5,6,7,8-tetrahydro-8-quinolinyl]amino}methyl)imidazo[1,2-a]pyridin-3-yl]methyl}benzenesulfonamide], the IC50 is < 100 nM.

On to `CN1CCN(c2cccc3nc(CN(C)[C@H]4CCCc5cccnc54)c(CNS(=O)(=O)Cc4ccccc4)n23)CC1` [Example 38, N-{[5-(4-Methyl-1-piperazinyl)-2-({methyl[(8S)-5,6,7,8-tetrahydro-8-quinolinyl]amino}methyl)imidazo[1,2-a]pyridin-3-yl]methyl}-1-phenylmethanesulfonamide], for which the IC50 is < 100 nM.

As to `CCNC(=O)NCc1c(CN(C)[C@H]2CCCc3cccnc32)nc2cccc(N3CCN(C)CC3)n12` [Example 39, N-Ethyl-N′-{[5-(4-methyl-1-piperazinyl)-2-({methyl[(8S)-5,6,7,8-tetrahydro-8-quinolinyl]amino}methyl)imidazo[1,2-a]pyridin-3-yl]methyl}urea], the IC50 is < 100 nM.

For the compound `CC(C)NC(=O)NCc1c(CN(C)[C@H]2CCCc3cccnc32)nc2cccc(N3CCN(C)CC3)n12` [Example 40, N-(1-Methylethyl)-N′-{[5-(4-methyl-1-piperazinyl)-2-({methyl[(8S)-5,6,7,8-tetrahydro-8-quinolinyl]amino}methyl)imidazo[1,2-a]pyridin-3-yl]methyl}urea], the IC50 was < 100 nM.

For the compound `CN1CCN(c2cccc3nc(CN(C)[C@H]4CCCc5cccnc54)c(CNC(=O)Nc4ccccc4)n23)CC1` [Example 41, N-{[5-(4-Methyl-1-piperazinyl)-2-({methyl[(8S)-5,6,7,8-tetrahydro-8-quinolinyl]amino}methyl)imidazo[1,2-a]pyridin-3-yl]methyl}-N′-phenylurea], the IC50 was < 100 nM.

As for `CN1CCN(c2cccc3nc(CN(C)[C@H]4CCCc5cccnc54)c(CNC(=O)Nc4ccc(N(C)C)cc4)n23)CC1` [Example 42, N-[4-(Dimethylamino)phenyl]-N′-{[5-(4-methyl-1-piperazinyl)-2-({methyl[(8S)-5,6,7,8-tetrahydro-8-quinolinyl]amino}methyl)imidazo[1,2-a]pyridin-3-yl]methyl}urea], the IC50 was < 100 nM.

For `COc1ccc(NC(=O)NCc2c(CN(C)[C@H]3CCCc4cccnc43)nc3cccc(N4CCN(C)CC4)n23)cc1` [Example 43, N-[4-(Methyloxy)phenyl]-N′-{[5-(4-methyl-1-piperazinyl)-2-({methyl[(8S)-5,6,7,8-tetrahydro-8-quinolinyl]amino}methyl)imidazo[1,2-a]pyridin-3-yl]methyl}urea], the IC50 is < 100 nM.

In the case of `CN1CCN(c2cccc3nc(CN(C)[C@H]4CCCc5cccnc54)c(CNC(N)=O)n23)CC1` [Example 44, N-{[5-(4-Methyl-1-piperazinyl)-2-({methyl[(8S)-5,6,7,8-tetrahydro-8-quinolinyl]amino}methyl)imidazo[1,2-a]pyridin-3-yl]methyl}urea], the IC50 is < 100 nM.
